Assay results: US20120003661A1, “METHODS AND DEVICES FOR THE SELECTIVE DETECTION OF MICROORGANISMS” (C3 JIAN, INC., priority 2010, published 2012)
“Also recorded” adds a separate entry of the source.

test system: bacteria, fungi, and/or yeasts; type: binding; conditions: microorganism(s) listed as target(s) of the targeting peptide; wrapped target lists given cell by cell

Substance	Target(s)
PF-034 (EPKKKHFPKMESASSEP)	M. luteus
1T-285 (FFPYYLADFYKQLKFLNEYQTKNKDKVVEFK)	A. naeslundii, F. nucleatum, P. gingivalis,; also recorded: S. gordonii, S. mitis,; also recorded: S. mutans, S. oralis, S. salivarious,; also recorded: S. sanguinis
PF-164 (EEVSRALAGIGLGLGCRIG)	S. epidermidis, M. luteus, E. coli,; also recorded: C. jeikeium
PF-043 (MIKNETAYQMNELLVIRSAYAK)	M. luteus, C. jejuni
PF-030 (MTCHQAPTTTHQSNMA)	yeast and hyphal forms; also recorded: S. epidermidis, M. luteus, P. mirabilis,; also recorded: E. coli, P. aeruginosa,; also recorded: C. albicans, MRSA, S. pneumoniae,; also recorded: E. faecalis, C. jeikeium,; also recorded: C. jejuni
1T-296 (EYSQQSFKAKPCSERGVLSP)	A. naeslundii, F. nucleatum, P. gingivalis,; also recorded: S. gordonii, S. mitis,; also recorded: S. mutans, S. oralis, S. salivarious,; also recorded: S. sanguinis
1T-281 (KYEKLTKENLFIRNSGNMCVFIYFLFFG)	A. naeslundii, F. nucleatum, P. gingivalis,; also recorded: S. epidermidis, S. gordonii,; also recorded: S. mitis, S. mutans, S. oralis,; also recorded: S. salivarious, S. sanguinis
PF-013 (LIQKGLNQTFIVVIRLNNFIKKS)	M. luteus, P. mirabilis, E. coli, P. aeruginosa,; also recorded: MRSA, S. pneumoniae,; also recorded: C. jeikeium, C. jejuni
Rv3760 (GLITVFAGTARILQLRRAAKKTHAAALR)	C. albicans
1T-299 (SMLTSFLRSKNTRSLKMYKDVHF)	A. naeslundii, F. nucleatum, S. epidermidis,; also recorded: S. gordonii, S. mitis,; also recorded: S. mutans, S. oralis, S. salivarious,; also recorded: S. sanguinis
PF-123 (TTRPQVAEDRQLDDALKETFPASDPISP)	M. luteus, E. coli
1T-256 (KGKSLMPLLKQINQWGKLYL)	S. sanguinis
PF-031 (MPHHSTTSSRIVVPAHQSNMASTPNLSITP)	M. luteus, C. albicans
1T-277 (IYYMRFVNKPLEKTFFKI)	A. naeslundii, F. nucleatum, P. gingivalis,; also recorded: T. denticola, S. gordonii,; also recorded: S. mitis, S. mutans, S. oralis,; also recorded: S. salivarious, S. sanguinis
PF-097 (QPTQGEQGTRPRRPTPMRGLLI)	C. jeikeium
PF-010 (MDIDVNKLLQAFVYFKSFEKLRHNNS)	S. epidermidis, M. luteus, E. coli,; also recorded: C. albicans
PF-172 (LTGVRRPWRAPWAGTSGWALR)	S. epidermidis, M. luteus, E. coli,; also recorded: P. aeruginosa, MRSA, E. faecalis,; also recorded: C. jejuni
PF-002 (NDDAQ)	yeast and hyphal forms; also recorded: S. epidermidis, P. mirabilis, C. albicans,; also recorded: C. jeikeium, C. jejuni
PF-127 (MLRYLSLFAVGLATGYAWGWIDGLAASLAV)	S. epidermidis, M. luteus, E. coli,; also recorded: P. aeruginosa, C. albicans,; also recorded: MRSA, S. pneumoniae, E. faecalis
PF-064 (DYYGKE)	E. coli
PF-166 (SKAVSRKRSI)	E. coli, C. jeikeium
PF-051 (RFFNFEIKKSTKVDYVFAHVDLSDV)	C. albicans hyphae; also recorded: S. epidermidis, M. luteus, P. aeruginosa,; also recorded: C. albicans, MRSA,; also recorded: S. pneumoniae, E. faecalis
TT-311 (AIFDAMHNL)	S. mutans, S. sobrinus
Rv2660c (RSPDFVDETAGQSWCAILGLNQFH)	C. albicans
1T-250 (LVQGDTILIENHVGTPVKDDGKDCLIIREADVLAVVND)	S. mitis, S. mutans, S. oralis
1T-264 (LEGKFYMAEDFDKTPECFKDYV)	S. sanguinis
PF-140 (FHRRVIRASEWALTTRSFSTPLRSAAR)	S. epidermidis, M. luteus, P. mirabilis,; also recorded: E. coli, P. aeruginosa,; also recorded: C. albicans, MRSA, S. pneumoniae,; also recorded: E. faecalis, C. jeikeium,; also recorded: C. jejuni, M. smegmatis
PF-036 (ILNRLSRIVSNEVTSLIYSLK)	S. epidermidis, M. luteus, P. mirabilis,; also recorded: E. coli, C. albicans,; also recorded: MRSA, S. pneumoniae, C. jejuni
PF-152 (VGYFIWKDSHSRKG)	S. epidermidis, C. albicans,; also recorded: MRSA, E. faecalis, C. jeikeium

same assay, conditions: microorganism(s) that the targeting peptide binds, as listed in Table 2

Substance	Target(s)
PF-C071 (QVIVKIL)	A. naeslundii, F. nucleatum, S. mutans
PF-800 (WYYFDNNGYM)	S. mutans
PF-C084 (FFSVIFLFGLNYLICNSPLFNILR)	A. naeslundii, F. nucleatum, P. gingivalis,; also recorded: S. mutans
PF-784 (MAMTTVDNIVGLVIAVALMAFLFAALLFPEKF)	Mycobacteria spp.
PF-799 (YTHYNTALSYALLLTNKSSVP)	S. mutans

same assay, conditions: microorganism(s) the targeting peptide binds, as listed in Table 2

Substance	Target(s)
1T-226 (KLQEKQIDRNFERVSGYSTYRAVQAAKAKEKGFISLEN)	A. naeslundii, F. nucleatum, S. epidermidis,; also recorded: S. gordonii, S. mitis,; also recorded: S. mutans, S. oralis, S. salivarious,; also recorded: S. sanguinis
1T-3 (VLGIAGGLDAYGELVGGN)	S. mutans, S. gordonii
1T-195 (AASGFTYCASNGVWHPY)	S. mutans
1T-62 (GCKGCAQRDPCAEPEPYFRLR)	S. epidermidis, P. aeruginosa
1T-121 (FAKETGFGIGGAQEGWWIIADIYGPNPF)	S. gordonii, S. mitis, S. mutans,; also recorded: S. oralis, S. salivarious, S. sanguinis
1T-230 (EFLEKFKVLKQPRKANNISKNRVAMIFLTIHKSRGFLSSPY)	A. naeslundii, F. nucleatum, P. gingivalis,; also recorded: S. epidermidis, S. gordonii,; also recorded: S. mitis, S. mutans, S. oralis,; also recorded: S. salivarious, S. sanguinis
1T-73 (GWWEELLHETILSKFKITKALELPIQL)	S. pneumoniae
1T-173 (LFRKEDQEHVLL)	A. naeslundii, F. nucleatum, P. gingivalis,; also recorded: S. gordonii, S. mitis,; also recorded: S. mutans, S. oralis, S. salivarious,; also recorded: S. sanguinis
1T-111 (GRLSRREEDPATSIILLRGAYRMAVF)	A. naeslundii, F. nucleatum, P. gingivalis,; also recorded: S. epidermidis, S. gordonii,; also recorded: S. mitis, S. mutans, S. oralis,; also recorded: S. salivarious, S. sanguinis
1T-101 (RLRVGRATDLPLTSFAVGVVRNLPDAPAH)	A. naeslundii, P. gingivalis, S. epidermidis,; also recorded: S. gordonii, S. mitis,; also recorded: S. mutans, S. oralis, S. sanguinis
1T-172 (FEGLKNLLGDDII)	A. naeslundii, F. nucleatum, P. gingivalis,; also recorded: S. epidermidis, S. gordonii,; also recorded: S. mitis, S. mutans, S. oralis,; also recorded: S. salivarious, S. sanguinis
1T-85 (VMASLTWRMRAASASLPTHSRTDA)	A. naeslundii, F. nucleatum, P. gingivalis,; also recorded: S. epidermidis, S. gordonii,; also recorded: S. mitis, S. mutans, S. oralis,; also recorded: S. salivarious, S. sanguinis
1T-63 (EPLILKELVRNLFLFCYARALR)	S. aureus, S. epidermidis, C. jeikeium,; also recorded: C. xerosis, C. striatum,; also recorded: P. aeruginosa
1T-92 (GQDEGQRRAGVGEGQGVDG)	S. mitis, S. mutans
1T-11 (RISE)	S. mutans, S. epidermidis, P. aeruginosa
1T-9 (WAWAESPRCVSTRSNIHALAFRVEVAALT)	M. xanthus

Substance	Target(s)
1T-149 (SVRAVKPIDETVARHFPGDFIVN)	A. naeslundii, F. nucleatum, P. gingivalis,; also recorded: T. denticola, S. gordonii,; also recorded: S. mitis, S. mutans, S. oralis,; also recorded: S. salivarious, S. sanguinis
1T-141 (KKFIILLFILVQGLIFSATKTLSDIIAL)	F. nucleatum, P. gingivalis, S. epidermidis,; also recorded: S. gordonii, S. mitis,; also recorded: S. mutans, S. oralis, S. sanguinis
1T-80 (GGNLGPGFGVIIP)	S. pneumoniae
1T-100 (LDPLEPRIAPPGDRSHQGAPACHRDPLRGRSARDAER)	S. gordonii, S. mitis, S. mutans
1T-202 (LCRLEKLCKQFLRQDKVVTYYLMLPYKRAIEAFYQELKERS)	A. naeslundii, F. nucleatum, P. gingivalis,; also recorded: S. epidermidis, S. gordonii,; also recorded: S. mitis, S. mutans, S. oralis,; also recorded: S. salivarious, S. sanguinis
1T-164 (KKSHSQGKRKLKDLNSAYKIDNQLHYALR)	A. naeslundii, F. nucleatum, P. gingivalis,; also recorded: S. epidermidis, S. gordonii,; also recorded: S. mitis, S. mutans, S. oralis,; also recorded: S. salivarious, S. sanguinis
1T-23 (PALVDLSNKEAVWAVLDDHS)	S. mutans, P. aeruginosa
1T-47 (VIKISVPGQVQMLIP)	S. mutans, S. epidermidis, P. aeruginosa
1T-129 (YDKYIKYLSIQPPFIVYFI)	A. naeslundii, P. gingivalis, S. epidermidis,; also recorded: S. gordonii, S. mitis,; also recorded: S. mutans, S. oralis, S. salivarious,; also recorded: S. sanguinis
1T-79 (FGTPWSITNFWKKNFNDRPDFDSDRRRY)	S. pneumoniae
1T-25 (VGLDVSVLVLFFGLQLLSVLLGAMIR)	S. aureus, S. epidermidis, C. xerosis,; also recorded: C. striatum, P. aeruginosa
1T-106 (DALRRSRSQGRRHR)	S. gordonii, S. mitis, S. mutans,; also recorded: S. oralis, S. salivarious
1T-18 (YSKTLHFAD)	S. aureus, S. epidermidis, C. striatum,; also recorded: P. aeruginosa
1T-107 (SPVPRFTAVGGVSRGSP)	A. naeslundii, S. epidermidis, S. gordonii,; also recorded: S. mitis, S. mutans, S. oralis,; also recorded: S. salivarious, S. sanguinis
1T-242 (KQVQNTTLIICGTVLLGILFKSYLKSQKSV)	F. nucleatum, S. sanguinis
